Like-named read-outs stand apart in the source and are kept apart here.
Columns and labels:
[1] = system: mouse melanocyte cell line (B16); assay: Melanocyte survival by trypan blue exclusion after solar simulated UV exposure; assay type: cell-based; conditions: for Melanocyte survival (viability) in ultraviolet (UV) exposed cells: 20 min solar simulated UV (~15 MEDS), increasing doses of inhibitor after exposure, trypan blue exclusion 24 hours after UV
Protocol: FIG. 3 is a graph illustrating death of melanocytes with tyrosinase inhibitors applied subsequent to ultraviolet (UV) radiation exposure. The graph illustrates results from a study conducted with mice melanocyte cell line (B16). The mouse melanocyte cell line (B16) was exposed to solar simulated ultraviolet (UV) radiation for 20 minutes. The solar ultraviolet (UV) radiation was simulated using a 300 W Xe solar simulator, equivalent to approximately 15 Minimal Erythemal Doses (MEDS), or equivalent to strong sunburn. After ultraviolet (UV) radiation exposure, cells were treated with increasing doses of the following tyrosinase inhibitors: kojic acid (shown in FIG. 3A) and methyl gentisate (shown in FIG. 3B). Melanocyte survival was determined by trypan blue exclusion 24 hours after ultraviolet (UV) radiation exposure. It was shown that there was no effect of tyrosinase inhibitors on the survival in non-ultraviolet (UV) exposed cells (not shown in FIG. 3). […] Preventing quinones from passing out of the melanosome substantially protects melanocytes from DNA damage.

[2] = system: mouse melanocyte cell line (B16); assay: DNA adduct assay (13C tyrosine enrichment, isotope ratio mass spectrometry); assay type: cell-based; conditions: B16 cells, 300 μM PTU immediately after 20 min full spectrum UV, 5 μM 13C tyrosine 1 hour after UV, DNA isolated after 4 hours
Protocol: FIG. 4 is a graph illustrating a DNA adduct assay. Mouse melanocyte cell line (B16) was incubated with 300 μM phenylthiourea (PTU) immediately after ultraviolet (UV) radiation exposure. After 20 minutes of full spectrum ultraviolet (UV) radiation exposure, 5 μM ^13C tyrosine was added 1 hour after ultraviolet (UV) radiation exposure. After 4 hours, DNA was isolated and adducts determined as an increase in ^13C enrichment over baseline after combustion and isotope ratio mass spectrometry.

| Structure (SMILES) | Melanocyte survival (viability) in ultraviolet (UV) exposed cells ([1]; B16 cells) | Melanocyte survival in non-ultraviolet (UV) exposed cells ([1]; B16 cells, no UV exposure, trypan blue exclusion) | Melanocyte survival in non-ultraviolet (UV) exposed cells [1] | DNA adducts (13C enrichment over baseline, delta value) [2] |
| --- | --- | --- | --- | --- |
| O=c1cc(CO)occ1O [kojic acid] | dose dependent increase in viability | no effect |  |  |
| COC(=O)c1cc(O)ccc1O [methyl gentisate] | dose dependent increase in viability |  | no effect |  |
| NC(=S)Nc1ccccc1 [PTU, phenylthiourea] |  |  |  | greatly decreases DNA adducts |
